“Also recorded” adds a separate entry of the source. Read-outs that look alike come from different tables or passages of the source.
Legend:
[1] = tested on: Human umbilical cord vascular endothelial cells (HUVEC); assay: Experiment of growth: HUVEC cell number by WST-8 after 48 hrs; assay type: cell-based; settings: for inhibition at 20000 µM: Homo sapiens, HUVEC, 20 mM, read-out: inhibition of growth to the control group; for antagonism of the growth inhibitory effect by D-glucose: co-existence of 20 mM D-glucose
Protocol: Human umbilical cord vascular endothelial cells (HUVEC) were purchased as primary cultured cells from KURABO (Kurabo Co., Osaka, Japan) and the cells up to P8 were used in experiments. The cells were inoculated on a 96-well plate at a rate of 3000 cells/well, and allowed to stand in Humedia EG2 (Kurabo) overnight (37° C., 5% CO2). Next morning, the medium was replaced by 90 μl of 2% FBS-containing Humedia EB2 (Kurabo), to which was then added 10 μl of additive, and after a lapse of 48 hrs the number of cells was counted. No medium was exchanged during this period. In counting, a tetrazolium salt WST-8 was added to each well (0.5 mM), and after 2 hrs the absorbance was measured at 450 nm. The tetrazolium salt added was reduced with an intracellular dehydrogenase to yield formazan depending on the number of cells in the well. In advance, the absorbance at 450 nm was confirmed to show a linearity within the range of 500 to 12000 cells in the well.

[2] = tested on: human endothelial cells and fibroblasts; assay: Experiment of luminal formation: concurrent culture, CD31 staining, area of the lumen; assay type: cell-based; settings: for effect on the luminal formation: Example 1, 0.1-20 mM, 10 days; for effect on the luminal formation of HUVEC: Example 2 (36 species), incubation for 10 days; for inhibition at 20000 µM / inhibition at 1000 µM / inhibition at 2500 µM: Homo sapiens; for inhibition at 20000 µM: 20 mM; for antagonism of the luminal formation inhibitory effect by D-glucose: co-existence of 20 mM D-glucose; for inhibition of the acceleration of luminal formation by VEGF: with VEGF; for inhibition at 1000 µM: 1 mM; for inhibition at 2500 µM: 2.5 mM
Protocol: Using a concurrent culture system of human endothelial cells and fibroblasts planted on a 24-well plate (Kurabo Co., Osaka, Japan), the culture medium was replaced by culture media containing a variety of additives at the early stage of luminal formation. Every 3 days, the medium was exchanged with the additive; 10 day after incubation, the endothelial cell only was stained by using mouse anti-human CD31 antibody (Kurabo Co., Osaka, Japan), goat anti-mouse IgG AlkP Conjugate (Kurabo Co., Osaka, Japan), and BCPI (5-bromo-4-chloro-3-indolyl phosphate) (Kurabo Co., Osaka, Japan) to photograph. The visualized area of the lumen was measured by means of NIH image software.

[3] = cited from earlier work; for Ald type (%): aldehyde structure; for Fra α (%): furanose α-anomer; for Fra β (%): furanose β-anomer; for Pira β (%): pyranose β-anomer; for Pira α (%): pyranose α-anomer
[4] = Example 2 (36 species), 48 hours

O=C[C@H](O)C[C@H](O)[C@H](O)CO [3DG, 3-deoxy-D-glucose]
effect on the growth of HUVEC ([1]; Example 1, 0.1-20 mM, 48 hrs): effect was confirmed
effect on the growth of HUVEC ([1]; Example 1, 0.1-20 mM, 48 hrs, listed as 3-deoxy-D-glucose): inhibit both
effect on the growth of HUVEC [1, 4]: inhibitory effect was observed
inhibition at 20000 µM ([1]; 48 hrs): 40 to 80%
antagonism of the growth inhibitory effect by D-glucose [1]: antagonized
effect on the luminal formation [2]: effect was confirmed
effect on the luminal formation ([2]; listed as 3-deoxy-D-glucose): inhibit both
effect on the luminal formation of HUVEC [2]: inhibitory effect was observed
inhibition at 20000 µM [2]: 50 to 80%
antagonism of the luminal formation inhibitory effect by D-glucose [2]: no apparent effect

O=C[C@@H](O)[C@H](O)[C@H](O)[C@H](O)CO [ALT, D-altrose]
effect on the growth of HUVEC ([1]; Example 1, 0.1-20 mM, 48 hrs): no influence
effect on the luminal formation [2]: effect was confirmed
effect on the luminal formation of HUVEC [2]: inhibitory effect was observed
inhibition at 20000 µM [2]: 50 to 80%
antagonism of the luminal formation inhibitory effect by D-glucose [2]: no apparent effect
inhibition of the acceleration of luminal formation by VEGF [2]: inhibit the acceleration by VEGF

O=C[C@H](O)[C@H](O)[C@H](O)[C@H](O)CO [Allose]
Ald type (%) [3]: 1.38%
Fra α (%) [3]: 5%
Fra β (%) [3]: 7%
Pira β (%) [3]: 70%

O=C[C@@H](O)[C@H](O)[C@H](O)CO [Arabinose]
Ald type (%) [3]: 0.28%
C1/1C ([3]; chair form of pyranose α): 1C
C1/1C ([3]; chair form of pyranose β): mix
Fra α + Fra β total (%) ([3]; furanose, total of α and β): total 3%
Pira β (%) [3]: 34%

O=C[C@H](O)[C@@H](O)[C@H](O)[C@H](O)CO [D-glucose]
effect on the growth of HUVEC ([1]; Example 1, 0.1-20 mM, 48 hrs): no difference; also recorded: does not inhibit
share of the chair type C1 ([3]; in an aqueous solution): ~100%
effect on the luminal formation [2]: does not inhibit

O=CC[C@H](O)[C@H](O)CO [DRI, 2-deoxy-D-ribose]
effect on the growth of HUVEC ([1]; Example 1, 0.1-20 mM, 48 hrs): effect was confirmed
effect on the growth of HUVEC [1, 4]: inhibitory effect was observed
inhibition at 20000 µM ([1]; 48 hrs): 40 to 80%
antagonism of the growth inhibitory effect by D-glucose [1]: no antagonism
effect on the luminal formation [2]: effect was confirmed
effect on the luminal formation of HUVEC [2]: inhibitory effect was observed; also recorded: strong action
inhibition at 1000 µM [2]: ~20%
inhibition at 2500 µM [2]: > 95%
antagonism of the luminal formation inhibitory effect by D-glucose [2]: no apparent effect
inhibition of the acceleration of luminal formation by VEGF [2]: inhibit the acceleration by VEGF

O=C(CO)[C@H](O)[C@@H](O)[C@H](O)CO [DSO, D-sorbose]
effect on the growth of HUVEC [1, 4]: no remarkable effect

O=C(CO)[C@@H](O)[C@H](O)[C@H](O)CO [FRU, D-fructose]
effect on the growth of HUVEC [1, 4]: no remarkable effect

O=C(CO)[C@@H](O)[C@H](O)[C@H](O)CO [Fructose]
C1/1C ([3]; chair form of pyranose α): mix
C1/1C ([3]; chair form of pyranose β): 1C
Pira α (%) [3]: 28%
Pira β (%) [3]: 72%

O=C[C@H](O)[C@H](O)[C@@H](O)[C@H](O)CO [GUL, D-gulose]
effect on the growth of HUVEC ([1]; Example 1, 0.1-20 mM, 48 hrs): no influence
effect on the luminal formation [2]: effect was confirmed
effect on the luminal formation of HUVEC [2]: inhibitory effect was observed
inhibition at 20000 µM [2]: 50 to 80%
antagonism of the luminal formation inhibitory effect by D-glucose [2]: no apparent effect
inhibition of the acceleration of luminal formation by VEGF [2]: inhibit the acceleration by VEGF

O=C[C@H](O)[C@@H](O)[C@@H](O)[C@H](O)CO [Galactose]
Ald type (%) [3]: 0.082%
Fra α (%) [3]: trace
Fra β (%) [3]: trace
Pira β (%) [3]: 64%

O=C[C@@H](O)[C@H](O)[C@@H](O)[C@H](O)CO [Idose]
C1/1C ([3]; chair form of pyranose α): mix
Fra α (%) [3]: 16%
Fra β (%) [3]: 16%
Pira β (%) [3]: 37%

O=C[C@@H](O)[C@@H](O)[C@@H](O)[C@@H](O)CO [LAL, L-allose]
effect on the growth of HUVEC ([1]; Example 1, 0.1-20 mM, 48 hrs): no influence
effect on the luminal formation [2]: effect was confirmed
effect on the luminal formation of HUVEC [2]: inhibitory effect was observed
inhibition at 20000 µM [2]: 50 to 80%
antagonism of the luminal formation inhibitory effect by D-glucose [2]: antagonized

O=CC[C@@H](O)[C@@H](O)CO [LDR, 2-deoxy-L-ribose]
effect on the growth of HUVEC ([1]; Example 1, 0.1-20 mM, 48 hrs): effect was confirmed
effect on the growth of HUVEC [1, 4]: inhibitory effect was observed
inhibition at 20000 µM ([1]; 48 hrs): 40 to 80%
antagonism of the growth inhibitory effect by D-glucose [1]: no antagonism
effect on the luminal formation [2]: effect was confirmed
effect on the luminal formation of HUVEC [2]: inhibitory effect was observed; also recorded: strong action
inhibition at 1000 µM [2]: ~20%
inhibition at 2500 µM [2]: > 95%
antagonism of the luminal formation inhibitory effect by D-glucose [2]: no apparent effect
inhibition of the acceleration of luminal formation by VEGF [2]: inhibit the acceleration by VEGF

O=C(CO)[C@H](O)[C@@H](O)[C@@H](O)CO [LFR, L-fructose]
effect on the growth of HUVEC [1, 4]: no remarkable effect

O=C(CO)[C@@H](O)[C@@H](O)[C@@H](O)CO [LPS, L-psicose]
effect on the growth of HUVEC [1, 4]: no remarkable effect

O=C[C@@H](O)[C@@H](O)[C@@H](O)CO [LRI, L-ribose]
effect on the growth of HUVEC ([1]; Example 1, 0.1-20 mM, 48 hrs): no influence
effect on the luminal formation [2]: effect was confirmed
effect on the luminal formation of HUVEC [2]: inhibitory effect was observed
inhibition at 20000 µM [2]: 50 to 80%
antagonism of the luminal formation inhibitory effect by D-glucose [2]: no apparent effect
inhibition of the acceleration of luminal formation by VEGF [2]: inhibit the acceleration by VEGF

O=C(CO)[C@H](O)[C@H](O)[C@@H](O)CO [LTA, L-tagatose]
effect on the growth of HUVEC [1, 4]: no remarkable effect

O=C[C@@H](O)[C@@H](O)[C@H](O)CO [Lyxose]
Ald type (%) [3]: 0.4%
C1/1C ([3]; chair form of pyranose α): mix
Pira β (%) [3]: 28%

O=C(CO)[C@H](O)[C@H](O)[C@H](O)CO [Psicose]
C1/1C ([3]; chair form of pyranose β): 1C
Pira α (%) [3]: 33%
Pira β (%) [3]: 67%

O=C[C@H](O)[C@H](O)[C@H](O)CO [RIB, D-ribose]
effect on the growth of HUVEC ([1]; Example 1, 0.1-20 mM, 48 hrs): no influence
effect on the luminal formation [2]: effect was confirmed
effect on the luminal formation of HUVEC [2]: inhibitory effect was observed
inhibition at 20000 µM [2]: 50 to 80%
antagonism of the luminal formation inhibitory effect by D-glucose [2]: no apparent effect
inhibition of the acceleration of luminal formation by VEGF [2]: inhibit the acceleration by VEGF

O=C[C@H](O)[C@H](O)[C@H](O)CO [Ribose]
Ald type (%) [3]: 8.5%
C1/1C ([3]; chair form of pyranose α): mix
C1/1C ([3]; chair form of pyranose β): mix
Fra α (%) [3]: 6%
Fra β (%) [3]: 18%
Pira β (%) [3]: 56%

O=C(CO)[C@@H](O)[C@H](O)[C@@H](O)CO [SOR, L-sorbose]
effect on the growth of HUVEC ([1]; Example 1, 0.1-20 mM, 48 hrs): effect was confirmed; also recorded: inhibitory effect for growth
effect on the growth of HUVEC [1, 4]: growth inhibition; also recorded: inhibitory effect was observed
inhibition at 20000 µM ([1]; 48 hrs): 40 to 80%
antagonism of the growth inhibitory effect by D-glucose [1]: no antagonism
effect on the luminal formation [2]: no influence

O=C(CO)[C@@H](O)[C@@H](O)[C@H](O)CO [TAG, D-tagatose]
effect on the growth of HUVEC [1, 4]: no remarkable effect

O=C[C@@H](O)[C@@H](O)[C@@H](O)[C@H](O)CO [TAO, D-talose]
effect on the growth of HUVEC ([1]; Example 1, 0.1-20 mM, 48 hrs): no influence
effect on the luminal formation [2]: effect was confirmed
effect on the luminal formation of HUVEC [2]: inhibitory effect was observed
inhibition at 20000 µM [2]: 50 to 80%

O=C(CO)[C@@H](O)[C@@H](O)[C@H](O)CO [Tagatose]
Pira α (%) [3]: 89%
Pira β (%) [3]: 11%

O=C[C@H](O)[C@@H](O)[C@H](O)CO [Xylose]
Ald type (%) [3]: 0.17%
Pira β (%) [3]: 63%

From US20100222285A1, “METHOD OF CONTROLLING THE PROLIFERATION OF VASCULAR ENDOTHELIAL CELLS AND INHIBITING LUMEN FORMATION” (Rare Sugar Production Technical Research Laboratories, LLC, priority 2004, published 2010)
